Laboratory results as given in article PMC8621172, “Manipulating Estrogenic/Anti-Estrogenic Activity of Triphenylethylenes towards Development of Novel Anti-Neoplastic SERMs” (International Journal of Molecular Sciences, 2021).

Assays:
MCF-7 cells = assay: NCI growth inhibition on MCF-7 (single dose and five-dose, SRB); format: cell-based, human; conditions: Homo sapiens, MCF7
Protocol: Compounds were submitted to the Developmental Therapeutics Program (DTP) of the National Cancer Institute (NCI). The program uses a panel of 60 human tumor cell lines representing nine tissue types, including leukemia, non-small cell lung cancer (NSCLC), melanoma, colon cancer, ovarian cancer, CNS cancer, renal cancer, prostate cancer, and breast cancer, to screen for potential new anti-cancer agents. […] Primary screening of synthesized compounds was performed by testing a single high dose of 10 µM in the full NCI-60 panel. The percent growth of treated cells relative to the no-drug control and relative to the time zero number of cells was measured, and a mean graph was provided. The percentage inhibition was then calculated by subtracting the values obtained from 100.
All compounds were subjected to the NCI in vitro disease-oriented human cells screening panel assay. The human tumor cell lines of the cancer-screening panel are grown in RPMI 1640 medium containing 5% fetal bovine serum and 2 mM L-glutamine. For a typical screening experiment, cells are inoculated into 96-well microtiter plates in 100 μL at plating densities ranging from 5000 to 40,000 cells/well depending on the doubling time of individual cell lines. After cell inoculation, the microtiter plates are incubated at 37 °C, 5% CO2, 95% air, and 100% relative humidity for 24 h prior to the addition of experimental drugs. After 24 h, two plates of each cell line are fixed in situ with TCA to represent a measurement of the cell population for each cell line at the time of drug addition. Experimental drugs are solubilized in dimethyl sulfoxide at 400-fold the desired final maximum test concentration and stored frozen prior to use. At the time of drug addition, an aliquot of frozen concentrate is thawed and diluted to twice the desired final maximum test concentration with complete medium containing 50 μg/mL gentamicin. Additional four, 10-fold, or ½ log serial dilutions are made to provide a total of five drug concentrations plus control. Aliquots of 100 μL of these different drug dilutions are added to the appropriate microtiter wells already containing 100 μL of medium, resulting in the required final drug concentrations. Following drug addition, the plates are incubated for an additional 48 h at 37 °C, 5% CO2, 95% air, and 100% relative humidity. For adherent cells, the assay is terminated by the addition of cold TCA. Cells are fixed in situ by the gentle addition of 50 μL of cold 50% (w/v) TCA (final concentration, 10% TCA) and incubated for 60 min at 4 °C. The supernatant is discarded, and the plates are washed five times with tap water and air-dried. Sulforhodamine B (SRB) solution (100 μL) at 0.4% (w/v) in 1% acetic acid is added to each well, and plates are incubated for 10 min at room temperature. After staining, unbound dye is removed by washing five times with 1% acetic acid, and the plates are air-dried. Bound stain is subsequently solubilized with a 10 mM trizma base, and the absorbance is read on an automated plate reader at a wavelength of 515 nm. For suspension cells, the methodology is the same except that the assay is terminated by fixing settled cells at the bottom of the wells by gently adding 50 μL of 80% TCA (final concentration, 16% TCA). Compounds are screened at a dose of 10 µM, hits showing mean growth inhibition over 60 cell lines >50% are escalated for 5-dose screening assay. To construct a dose-response curve, about 60 cell lines of nine tumor subpanels were incubated with five concentrations (0.01–100 μM) for each compound. Three response parameters (GI50, TGI, and LC50) were calculated for each cell line.

human ERα = molecular target: T1, human ERα (Homo sapiens, UniProt P03372); assay: Yeast estrogen screen (YES) assay, antagonistic activity (β-galactosidase reporter); format: cell-based, yeast (Saccharomyces cerevisiae); conditions: compounds at 1 µM in presence of 0.5 nM/1 nM E2 (E2 set as 1); triplicates
T1 construct: host or cells: Saccharomyces cerevisiae
T1 sequence (P03372 1-595): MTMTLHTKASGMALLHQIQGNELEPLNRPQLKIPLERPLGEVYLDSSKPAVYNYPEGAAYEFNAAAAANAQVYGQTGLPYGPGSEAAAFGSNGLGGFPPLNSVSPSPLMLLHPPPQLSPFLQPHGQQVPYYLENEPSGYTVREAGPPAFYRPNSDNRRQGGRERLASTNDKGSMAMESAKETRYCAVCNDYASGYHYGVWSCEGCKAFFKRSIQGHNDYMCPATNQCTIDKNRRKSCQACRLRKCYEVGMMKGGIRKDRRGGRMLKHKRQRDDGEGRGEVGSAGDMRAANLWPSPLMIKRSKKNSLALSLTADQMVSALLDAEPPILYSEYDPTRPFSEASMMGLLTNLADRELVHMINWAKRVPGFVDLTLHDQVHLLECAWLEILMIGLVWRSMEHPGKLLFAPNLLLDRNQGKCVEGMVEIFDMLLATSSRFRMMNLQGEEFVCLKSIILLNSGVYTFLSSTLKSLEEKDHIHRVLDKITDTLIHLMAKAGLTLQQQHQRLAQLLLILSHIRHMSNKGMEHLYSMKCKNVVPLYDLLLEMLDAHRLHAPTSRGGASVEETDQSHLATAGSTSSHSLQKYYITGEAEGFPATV
Protocol: All synthesized compounds were tested for their relative activity in β-galactosidase in a yeast estrogen screen (YES) assay. Compounds were tested for their relative estrogenic/anti-estrogenic activities in comparison to positive and negative controls, respectively. YES assay is a gene reporter assay where the DNA sequence of human ERα is integrated into the yeast genome completed with an expression plasmid carrying estrogen response elements (ERE) in the promoter controlling the expression of the reporter gene lacZ (encoding the enzyme β-galactosidase). In the presence of estrogenic compounds, β-galactosidase is synthesized and secreted into the medium, where it converts the chromogenic substrate chlorophenol red-β-D-galactopyranoside (CRPG) from a yellow to a red product, whose absorbance is measured. […] Therefore, we decided to test the novel compounds in an organ-specific in vitro model using the human Ishikawa endometrial adenocarcinoma cell line.
The yeast estrogen receptor assay was supplied by Dr. J.P. Sumpter (Brunel University, Uxbridge, UK) and was used to determine the relative transactivation activity of the human ERα as formerly described. Briefly, Saccharomyces cerevisiae stably transfected with a human ERα and an estrogen-responsive element fused to the reporter gene lacZ encoding for β-galactosidase were treated with the test substances for about 48 h. The β-galactosidase enzymatic activity was measured in a colorimetric assay using a microplate photometer by hydrolysis of the substrate chlorophenol red β-D-galactopyranoside (Roche Diagnostics, Mannheim, Germany), which leads to the formation of chlorophenol red. This can be measured as an increased absorption at 540 nm. All compounds were diluted in DMSO. […] All compounds were tested in technical quadruplicates and biological triplicates. Statistical analysis was performed by analysis of variance (ANOVA) and Tukey’s post-hoc test with the significance level of p < 0.05.

Row | Compound | Anti-Estrogenic Activity (relative β-galactosidase activity) (human ERα) | inhibition at 10 µM (MCF-7 cells) [%] | GI50 (MCF-7 cells; MCF-7, five-dose assay, 48 h) [nM]
1 | COc1cc(C(C)=C(c2ccc(Cl)cc2)c2ccc(OCCCN(C)C)cc2)ccc1F [Compound 22, E/Z-(3-{4-[1-(4-Chlorophenyl)-2-(4-fluoro-3-methoxyphenyl)-propenyl]-phenoxy}-propyl)-dimethyl-amine] | 0.97 ± 0.03 | 33.2 | –
2 | COc1cc(C(C)=C(c2ccc(Cl)cc2)c2ccc(OCCN(C)C)cc2)ccc1F [Compound 27, E/Z-(2-{4-[1-(4-Chlorophenyl)-2-(4-fluoro-3-methoxyphenyl)-propenyl]-phenoxy}-ethyl)-dimethyl-amine] | 0.86 ± 0.04 | 68.3 | –
3 | CCN(CC)CCOc1ccc(C(=C(C)c2ccc(F)c(OC)c2)c2ccc(Cl)cc2)cc1 [Compound 28, E/Z-(2-{4-[1-(4-Chlorophenyl)-2-(4-fluoro-3-methoxyphenyl)-propenyl]-phenoxy}-ethyl)-diethyl-amine] | 0.86 ± 0.07 | > 100 | 2170

Second part, led by results:

Row | Anti-Estrogenic Activity (relative β-galactosidase activity) (human ERα) | Compound | inhibition at 10 µM (MCF-7 cells) [%] | GI50 (MCF-7 cells; MCF-7, five-dose assay, 48 h) [nM]
4 | 1.06 ± 0.05 | COc1cc(C(C)=C(c2ccc(Cl)cc2)c2ccc(OCCN3CCCC3)cc2)ccc1F [Compound 23, E/Z-1-(2-{4-[1-(4-Chlorophenyl)-2-(4-fluoro-3-methoxyphenyl)-propenyl]-phenoxy}-ethyl)-pyrrolidine] | 73.5 | –
5 | 1.19 ± 0.10 | COc1cc(C(C)=C(c2ccc(Cl)cc2)c2ccc(OCCN3CCCCC3)cc2)ccc1F [Compound 24, E/Z-1-(2-{4-[1-(4-Chlorophenyl)-2-(4-fluoro-3-methoxyphenyl)-propenyl]-phenoxy}-ethyl)-piperidine] | 49.3 | –
6 | 1.18 ± 0.03 | COc1cc(C(C)=C(c2ccc(Cl)cc2)c2ccc(OCCN3CCOCC3)cc2)ccc1F [Compound 25, E/Z-4-(2-{4-[1-(4-Chlorophenyl)-2-(4-fluoro-3-methoxyphenyl)-propenyl]-phenoxy}-ethyl)-morpholine] | 2.75 | –
7 | 1.05 ± 0.12 | COc1cc(C(C)=C(c2ccc(Cl)cc2)c2ccc(OCCN3CCCCCC3)cc2)ccc1F [Compound 26, E/Z-1-(2-{4-[1-(4-Chlorophenyl)-2-(4-fluoro-3-methoxyphenyl)-propenyl]-phenoxy}-ethyl)-azepane] | 36.5 | –
